Data reported in PubChem BioAssay AID1259408 (Genetic Toxicology Data Bank (GENE-TOX), 2018).
Active and inactive are the calls of the source. No rule for the calls is given here.

System: GENE-TOX genotoxicity assays, various organisms and cells
Assay: GENE-TOX mutagenicity studies
[1] = Species/Cell Type: Mammalian polychromatic erythrocytes, Assay Type: Micronucleus test, chromosome aberrations, Assay Code: MNT+, Evaluation Type: Evaluation B (Post-1980)
[2] = Species/Cell Type: Salmonella typhimurium (one or more of the five standard strains: TA98, TA100, TA1535, TA1537, and TA1538), Assay Type: Histidine reverse gene mutation, Ames assay, Assay Code: SALT, Evaluation Type: Evaluation A (Pre-1980)
[3] = Species/Cell Type: Salmonella typhimurium (one or more of the five standard strains: TA98, TA100, TA1535, TA1537, and TA1538), Assay Type: Histidine reverse gene mutation, Ames assay, Assay Code: SAL+, Evaluation Type: Evaluation A (Pre-1980)

For `CC[C@]1(O)C[C@@H]2CN(CCc3c([nH]c4ccccc34)[C@@](C(=O)OC)(c3cc4c(cc3OC)N(C)[C@H]3[C@@](O)(C(=O)OC)[C@H](OC(C)=O)[C@]5(CC)C=CCN6CC[C@]43[C@@H]65)C2)C1`, the mutagenic call (Species/Cell Type: Mammalian polychromatic erythrocytes, Assay Type: Micronucleus test, chromosome aberrations, Assay Code: MNT+, Evaluation Type: Evaluation A (Pre-1980)) was “active; positive”, the mutagenic call [1] was “active; positive” and the mutagenic call (Species/Cell Type: Mouse, Sex: Male, Assay Type: Sperm morphology, Assay Code: SPI+, Evaluation Type: Evaluation A (Pre-1980)) was “active; positive”. For the same compound, the mutagenic call (Species/Cell Type: Neurospora crassa, Assay Type: Aneuploidy, chromosome aberrations, Assay Code: NEN-, Evaluation Type: Evaluation A (Pre-1980)) was “inactive; negative”.

In the case of `c1nnc(NCNc2nncs2)s1`, the mutagenic call (Species/Cell Type: Mammalian polychromatic erythrocytes, Assay Type: Micronucleus test, chromosome aberrations, Assay Code: MNT+U, Dose Response: Unconfirmed positive response, Evaluation Type: Evaluation B (Post-1980)) is reported as “active; positive”.

For `c1ccc(N=NNc2ccccc2)cc1`, the mutagenic call (Species/Cell Type: Allium cepa, Assay Type: Chromosome aberrations, Assay Code: ALC+, Evaluation Type: Evaluation A (Pre-1980)) was “active; positive”.

`Nc1ccc2c(S(=O)(=O)O)cccc2c1S(=O)(=O)O` was tested, and the mutagenic call [2] was “no conclusion”.

In the case of `[Cl][Cd][Cl]`, the mutagenic call (Species/Cell Type: Bacillus subtilis (H17 vs M45), Assay Type: Rec-assay, spot test, DNA effects (bacterial DNA repair), Assay Code: REW+, Evaluation Type: Evaluation A (Pre-1980)) is reported as “active; positive”, the mutagenic call (Species/Cell Type: Drosophila melanogaster, Assay Type: Aneuploidy, whole sex chromosome loss, chromosome aberrations, Assay Code: DAC+, Evaluation Type: Evaluation A (Pre-1980)) is reported as “active; positive” and the mutagenic call (Species/Cell Type: Human lymphocytes or leukocytes, Assay Type: Chromosome aberrations in vitro, Assay Code: CY7-, Evaluation Type: Evaluation A (Pre-1980)) is reported as “inactive; negative”. The mutagenic call (Species/Cell Type: Mammalian polychromatic erythrocytes, Assay Type: Micronucleus test, chromosome aberrations, Assay Code: MNT-, Evaluation Type: Evaluation B (Post-1980)) was “inactive; negative”, the mutagenic call (Species/Cell Type: Mammalian polychromatic erythrocytes, Assay Type: Micronucleus test, chromosome aberrations, Assay Code: MNTT, Evaluation Type: Evaluation A (Pre-1980)) was “no conclusion” and the mutagenic call (Species/Cell Type: Mouse, Sex: Male, Assay Type: Sperm morphology, Assay Code: SPIT, Evaluation Type: Evaluation A (Pre-1980)) was “no conclusion”. The call (Species/Cell Type: Nonhuman, Assay Type: In vivo carcinogenicity studies, Assay Code: CCG+, Evaluation Type: Evaluation A (Pre-1980)) was “active; positive”, the mutagenic call (Species/Cell Type: Nonhuman, Assay Type: Sister-chromatid exchange (SCE) in vitro, Assay Code: SC2-, Evaluation Type: Evaluation B (Post-1980)) was “inactive; negative” and the mutagenic call (Species/Cell Type: Rabbit, Sex: Male, Assay Type: Sperm morphology, Assay Code: SPR+, Evaluation Type: Evaluation A (Pre-1980)) was “active; positive”. For the same compound, the mutagenic call (Species/Cell Type: Rat, Sex: Male, Assay Type: Sperm morphology, Assay Code: SPA+, Evaluation Type: Evaluation A (Pre-1980)) was “active; positive”, the mutagenic call (Species/Cell Type: Rodents, Sex: Male, Assay Type: Dominant lethal test, Assay Code: DLT-, Evaluation Type: Evaluation A (Pre-1980)) was “inactive; negative” and the mutagenic call (Species/Cell Type: Saccharomyces cerevisiae, Assay Type: Mitotic recombination or gene conversion, Assay Code: YEH+, Evaluation Type: Evaluation A (Pre-1980)) was “active; positive”. For the same compound, the mutagenic call [2] was “no conclusion”, the mutagenic call (Species/Cell Type: Salmonella typhimurium, Assay Type: Forward and reverse gene mutation, host-mediated assay, Assay Code: HMA-, Evaluation Type: Evaluation A (Pre-1980)) was “inactive; negative” and the mutagenic call (Species/Cell Type: Syrian hamster embryo (SA7/SHE) cells, Assay Type: Cell transformation, viral enhanced, Assay Code: CT7+, Evaluation Type: Evaluation A (Pre-1980)) was “active; positive”.

In the case of `Nc1ccc(N=Nc2ccc(S(=O)(=O)O)cc2)c(N)c1`, the mutagenic call (Species/Cell Type: Salmonella typhimurium (one or more of the five standard strains: TA98, TA100, TA1535, TA1537, and TA1538), Assay Type: Histidine reverse gene mutation, Ames assay, Assay Code: SAL+*, Activation: With metabolic activation, Evaluation Type: Evaluation A (Pre-1980)) is reported as “active; positive”.

For `NC(=O)N(CCCl)N=O`, the mutagenic call (Species/Cell Type: Chinese hamster lung (V79) cells, Assay Type: Forward gene mutation at the HPRT or ouabain locus, Assay Code: V79+, Evaluation Type: Evaluation A (Pre-1980)) was “active; positive”.

`CCOC(=O)COc1ccc(Cl)cc1CSC(=N)N` was tested, and the mutagenic call (Species/Cell Type: Saccharomyces cerevisiae, Assay Type: Reverse gene mutation, Assay Code: YERT, Evaluation Type: Evaluation A (Pre-1980)) was “no conclusion”.

With `Cc1ccc(Nc2ccc3c4c(cccc24)C(=O)c2ccccc2-3)cc1` the mutagenic call [3] was “active; positive”.

With `CC(N)Cc1ccccc1` (configuration not stated) the mutagenic call (Species/Cell Type: Drosophila melanogaster, Assay Type: Aneuploidy, sex chromosome gain, chromosome aberrations, Assay Code: DAGT, Evaluation Type: Evaluation A (Pre-1980)) was “no conclusion”, the mutagenic call (Species/Cell Type: Drosophila melanogaster, Assay Type: Aneuploidy, whole sex chromosome loss, chromosome aberrations, Assay Code: DACT, Evaluation Type: Evaluation A (Pre-1980)) was “no conclusion” and the mutagenic call (Species/Cell Type: Drosophila melanogaster, Assay Type: Sex-linked recessive lethal gene mutation, Assay Code: SRLT, Evaluation Type: Evaluation A (Pre-1980)) was “no conclusion”. For the same compound, the mutagenic call [1] was “active; positive”.

For `CN(O)C(=O)c1ccc2ccccc2c1`, the mutagenic call (Species/Cell Type: Nonhuman, Assay Type: Sister-chromatid exchange (SCE) in vitro, Assay Code: SC2+, Evaluation Type: Evaluation B (Post-1980)) was “active; positive”.

In the case of `CCOC(=O)N(CCOC(C)=O)N=O`, the mutagenic call [3] is reported as “active; positive”.
